{"source": "patent US6953823B2", "about": "“Elastomeric insulating composition for a solid propellant rocket motor” (Chung Shan Institute of Science and Technology, priority 2003, dated 2005)", "origin": "cited, not measured here", "test_system": "rats", "data": [{"smiles": "[OH-].[OH-].[OH-].[OH-].[OH-].[OH-].[Sn+4].[Zn+2]", "note": "[Zinc Hydroxystannate, zinc hydroxystannate]", "values": [{"measurement": "Oral Toxicity (LD50, rats)", "value": ">5", "unit": "gr/kg"}]}]}
